Entries after “also recorded” stand apart in the source; their conditions may differ.
How the values were obtained:
[1] = test system: mitochondrial membrane potential (ψmito) in BY4743 yeast cells; assay type: cell-based
yeast cells = details: cited from earlier work
Arabidopsis seedlings = test system: Arabidopsis seedlings; design: species or system Arabidopsis thaliana; details: in vivo
BY4743 yeast cells = assay type: cell-based

## C/C=C\C(=O)O[C@@H]1C[C@H]2O[C@@H]3C=C(C)C(=O)C[C@]3(C)[C@]1(C)[C@]21CO1 [Tcin, trichothecin]
[1]
  change of ψmito with increasing concentrations of Tcin: did not change much
Yeast cells
  IC50: 2.5 µM
Arabidopsis seedlings
  effect on root growth of the wild type: severely limited root growth; also recorded: severely restricts root initiation and elongation
BY4743 yeast cells
  growth against Tcin: increasingly resistant to Tcin
  growth against Tcin relative to cells carrying the vector alone: more sensitive to Tcin
  growth against Tcin relative to cells containing the vector alone: provided resistance

## COc1ccc(C[C@H]2NC[C@H](O)[C@H]2OC(C)=O)cc1 [anisomycin]
BY4743 yeast cells
  shift in growth sensitivity relative to cells carrying the vector alone: no significant shift in growth sensitivity

## O=C(N[C@H](CO)[C@H](O)c1ccc([N+](=O)[O-])cc1)C(Cl)Cl [chloramphenicol]
BY4743 yeast cells
  shift in growth sensitivity relative to cells carrying the vector alone: no significant shift in growth sensitivity

## C[C@@H]1C[C@@H]([C@H](O)CC2CC(=O)NC(=O)C2)C(=O)[C@@H](C)C1 [cycloheximide]
BY4743 yeast cells
  shift in growth sensitivity relative to cells carrying the vector alone: no significant shift in growth sensitivity
